From ChEMBL document CHEMBL1201862, “PubChem BioAssay data set” (2004)
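96-well plates; 48 h exposure; 5 concentrations. Endpoints by linear interpolation between flanking doses. Not reached: highest tested concentration assigned. GI50: concentration for 50% inhibition of growth.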 Calls of active or inactive are those of the source. No stated cut-off is given here; in the data, active = GI50 up to about 1.1 µM and inactive = higher.

Experiments:
Assay in all cases: inhibition of tumour cell growth, NCI panel, 48 h
CCRF-CEM = tested on: CCRF-CEM
MDA-N = tested on: MDA-N
HCT-116 = tested on: HCT-116
U-251 = tested on: U-251
LOX IMVI = tested on: LOX IMVI
HCC 2998 = tested on: HCC 2998
SF-295 = tested on: SF-295
NCI/ADR-RES = tested on: NCI/ADR-RES
SK-MEL-5 = tested on: SK-MEL-5
UO-31 = tested on: UO-31
SF-539 = tested on: SF-539
SF-268 = tested on: SF-268
NCI-H23 = tested on: NCI-H23
Hs-578T = tested on: Hs-578T
KM12 = tested on: KM12
SW-620 = tested on: SW-620
UACC-62 = tested on: UACC-62
NCI-H522 = tested on: NCI-H522
SN12C = tested on: SN12C
SNB-19 = tested on: SNB-19

Row | Structure (SMILES) | GI50 (CCRF-CEM) | GI50 (MDA-N) | GI50 (HCT-116) | GI50 (U-251) | GI50 (LOX IMVI) | GI50 (HCC 2998) | GI50 (SF-295) | GI50 (NCI/ADR-RES) | GI50 (SK-MEL-5) | GI50 (UO-31) | GI50 (SF-539) | GI50 (SF-268) | GI50 (NCI-H23) | GI50 (Hs-578T) | GI50 (KM12) | GI50 (SW-620) | GI50 (UACC-62) | GI50 (NCI-H522) | GI50 (SN12C) | GI50 (SNB-19)
1 | CC(=O)Nc1ccc(Nc2cc(=O)n(C)c(=O)[nH]2)cc1 | > 100 µM (inactive) | > 100 µM (inactive) | > 100 µM (inactive) | > 100 µM (inactive) | > 100 µM (inactive) | > 100 µM (inactive) | > 100 µM (inactive) | > 100 µM (inactive) | > 100 µM (inactive) | > 100 µM (inactive) | > 100 µM (inactive) | > 100 µM (inactive) | > 100 µM (inactive) | > 100 µM (inactive) | > 100 µM (inactive) | > 100 µM (inactive) | > 100 µM (inactive) | > 100 µM (inactive) | > 100 µM (inactive) | > 100 µM (inactive)
2 | COC(=O)[C@@H]1C[C@@H]2c3ccccc3N(S(=O)(=O)c3ccccc3)[C@@H]2N1C(=O)OC | > 100 µM (inactive) | > 100 µM (inactive) | > 100 µM (inactive) | > 100 µM (inactive) | > 100 µM (inactive) | > 100 µM (inactive) | > 100 µM (inactive) | > 100 µM (inactive) | > 100 µM (inactive) | > 100 µM (inactive) | > 100 µM (inactive) | > 100 µM (inactive) | 37.1 µM (inactive) | > 100 µM (inactive) | > 100 µM (inactive) | > 100 µM (inactive) | > 100 µM (inactive) | > 100 µM (inactive) | > 100 µM (inactive) | > 100 µM (inactive)
3 | NC(=O)NC(=O)Nc1ccc(Br)cc1 | > 4.65 µM (inactive) | 50.9 µM (inactive) | 17.3 µM (inactive) | 11.7 µM (inactive) | 8.45 µM (inactive) | > 21.9 µM (inactive) | 14.7 µM (inactive) | > 30.8 µM (inactive) | 7.67 µM (inactive) | 22.8 µM (inactive) | > 17.3 µM (inactive) | > 6.93 µM (inactive) | > 14.5 µM (inactive) | > 100 µM (inactive) | 21.8 µM (inactive) | > 11.5 µM (inactive) | 2.92 µM (inactive) | > 25.9 µM (inactive) | > 67.5 µM (inactive) | > 11.9 µM (inactive)
4 | CC(C)(C)C1CCC2c3c([nH]c4ccccc34)C3C(=O)N(c4cccc(Cl)c4)C(=O)C3C2C1 (stereo not given) | 4.3 µM (inactive) | 11 µM (inactive) | 6.3 µM (inactive) | 13.9 µM (inactive) | 7.48 µM (inactive) | 3.72 µM (inactive) | 18.5 µM (inactive) | 13.6 µM (inactive) | 13.5 µM (inactive) | 9.12 µM (inactive) | 17.5 µM (inactive) | 13 µM (inactive) | 8.49 µM (inactive) | 23.7 µM (inactive) | 5.01 µM (inactive) | 9.62 µM (inactive) | 12.9 µM (inactive) | 15.8 µM (inactive) | 5.71 µM (inactive) | 33.5 µM (inactive)
5 | S=c1ssc2c3ssc(=S)c3n(Cc3ccccc3)c12 | 17.2 µM (inactive) | > 100 µM (inactive) | > 100 µM (inactive) | 60.5 µM (inactive) | 43.2 µM (inactive) | > 100 µM (inactive) | > 100 µM (inactive) | > 100 µM (inactive) | > 100 µM (inactive) | 20.3 µM (inactive) | 21.3 µM (inactive) | 59.2 µM (inactive) | > 100 µM (inactive) | > 100 µM (inactive) | > 100 µM (inactive) | > 100 µM (inactive) | 40.3 µM (inactive) | 83.2 µM (inactive) | > 100 µM (inactive) | > 100 µM (inactive)
6 | CC(C)CC1NC(=O)C(C(C)C)NC(=O)CC(C)COC(=O)C(CC(C)C)N(C)C(=O)C(C(C)C)NC(=O)C(C(C)C)OC1=O (stereo not given) | 15.2 µM (inactive) | > 50 µM (inactive) | > 50 µM (inactive) | 31.2 µM (inactive) | 23.5 µM (inactive) | > 50 µM (inactive) | 38.4 µM (inactive) | > 50 µM (inactive) | > 50 µM (inactive) | > 50 µM (inactive) | 8.28 µM (inactive) | > 50 µM (inactive) | > 50 µM (inactive) | 26.7 µM (inactive) | > 50 µM (inactive) | > 50 µM (inactive) | 16 µM (inactive) | > 50 µM (inactive) | > 50 µM (inactive) | 17.1 µM (inactive)
7 | CNC(=O)N(C1=NCC(C)S1)c1ccc(C)c(C)c1 (stereo not given) | 2.39 µM (inactive) | 0.443 µM (active) | 3.5 µM (inactive) | 3.59 µM (inactive) | 5.09 µM (inactive) | 4.28 µM (inactive) | 3.17 µM (inactive) | 3.36 µM (inactive) | 4.08 µM (inactive) | 8.26 µM (inactive) | 2.62 µM (inactive) | 4.37 µM (inactive) | 7.08 µM (inactive) | 4.31 µM (inactive) | 3.15 µM (inactive) | 3.48 µM (inactive) | 3.56 µM (inactive) | 4.82 µM (inactive) | 7.23 µM (inactive) | 6.64 µM (inactive)
